Measurements as given in publication PMC4965013, “Open Source Drug Discovery with the Malaria Box Compound Collection for Neglected Diseases and Beyond” (PLoS Pathogens, 2016).

Legend:
[1] = tested on: CYP 2C19; conditions: cited from earlier work
[2] = tested on: Mycobacterium marinum in Acanthamoeba castellanii; parameters: method as in ref [150] (a number printed in a supplementary file, which may have a reference list of its own: not looked up in the article's list); conditions: 30 µM; ref [150]; cited from earlier work
[3] = tested on: Mycobacterium marinum; assay: M. marinum antibiotic assay; type: cell-based; conditions: 10µM
Protocol: Columns FA-FC: Soldati Group (data presented first in this paper). M. marinum, D. discoideum, and Acathamoeba castellani assays. Each compound of the Malaria Box has been assayed at 10 µM in all three assays. First, the antibiotic activity was assayed directly against Mycobacterium marinum in its culture medium. Second, the toxicity and growth inhibitory effect of the compounds was assayed against the amoeba Dictyostelium discoideum in its culture medium. Finally, the “in cellulo” anti-infective activity of each compound was tested using the intracellular infection system Acanthamoeba castellanii-M. marinum. Values have been normalized using the DMSO carrier. For each assay, values have been normalized to 1.00 using the DMSO carrier, which has no detectable effect on D. discoideum nor M. marinum growth, while rifabutin was used as positive control for the antibiotic assay and the infection assay, as it abolishes M. marinum growth (normalized value under 0.10) in broth at 10 µM and intracellularly at 30 µM [150].

[4] = tested on: S. mansoni adult worms; parameters: method as in ref [91] (a number printed in a supplementary file, which may have a reference list of its own: not looked up in the article's list); conditions: ref [91]; read-out: Schistosoma mansoni adult worm EC50 J. Keiser; cited from earlier work
[5] = tested on: Schistosoma mansoni adult males; assay: S. mansoni adult phenotypic and motility screen Caffrey
[6] = tested on: Schistosoma mansoni schistosomula (somules); assay: S. mansoni somules phenotypic screen Caffrey; conditions: 2.5 µM, 48 h
[7] = tested on: S. mansoni newly transformed schistosomula (NTS); parameters: method as in ref [91] (a number printed in a supplementary file, which may have a reference list of its own: not looked up in the article's list); conditions: ref [91]; read-out: Schistosoma mansoni newly transformed schistosomula EC50 J. Keiser; cited from earlier work
[8] = tested on: Cryptosporidium parvum; assay: Cryptosporidium parvum high content microscopy in HCT-8
[9] = biological target: T1, M3 receptor (Homo sapiens, UniProt P20309); assay: M3 radioligand binding; conditions: reference compound
T1 construct: purchased Perkin Elmer
T1 sequence (P20309 whole entry): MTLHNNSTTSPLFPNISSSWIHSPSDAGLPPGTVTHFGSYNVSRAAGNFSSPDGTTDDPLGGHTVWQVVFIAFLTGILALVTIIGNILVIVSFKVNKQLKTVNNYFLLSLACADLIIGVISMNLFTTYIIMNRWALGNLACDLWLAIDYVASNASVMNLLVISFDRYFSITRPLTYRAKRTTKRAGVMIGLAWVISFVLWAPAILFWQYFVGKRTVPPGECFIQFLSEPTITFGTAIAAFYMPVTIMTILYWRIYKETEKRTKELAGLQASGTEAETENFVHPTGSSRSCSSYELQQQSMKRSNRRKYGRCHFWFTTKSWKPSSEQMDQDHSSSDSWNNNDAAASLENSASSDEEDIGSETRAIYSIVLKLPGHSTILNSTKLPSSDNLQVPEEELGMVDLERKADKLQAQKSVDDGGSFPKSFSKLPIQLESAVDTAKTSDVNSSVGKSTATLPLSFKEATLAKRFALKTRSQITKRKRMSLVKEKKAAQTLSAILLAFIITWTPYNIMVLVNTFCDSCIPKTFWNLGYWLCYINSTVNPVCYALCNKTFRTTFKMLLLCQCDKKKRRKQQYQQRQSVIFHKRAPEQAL

[10] = parameters: method as in ref WuXi; conditions: WuXi's Acceptance Range For Positive Controls; ref WuXi; cited from earlier work
[11] = biological target: T2, 6-Phosphogluconolactonase (Plasmodium falciparum, UniProt Q8IKU0); assay: Bioaffinity Mass Spectrometry Screening, 6-Phosphogluconolactonase; type: binding; conditions: compound:protein ~5:1
T2 construct: […]; His6 with linker ([…]) (N); made in house
T2 sequence (Q8IKU0 1-327): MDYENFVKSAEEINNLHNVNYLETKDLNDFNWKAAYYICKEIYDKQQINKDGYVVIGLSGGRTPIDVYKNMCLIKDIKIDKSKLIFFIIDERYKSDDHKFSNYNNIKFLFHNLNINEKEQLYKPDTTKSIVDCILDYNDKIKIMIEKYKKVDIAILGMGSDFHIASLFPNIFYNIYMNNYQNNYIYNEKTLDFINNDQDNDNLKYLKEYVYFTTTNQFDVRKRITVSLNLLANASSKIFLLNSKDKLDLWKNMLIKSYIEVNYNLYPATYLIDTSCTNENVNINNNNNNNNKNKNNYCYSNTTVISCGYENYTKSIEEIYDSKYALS
Protocol: Bioaffinity Mass Spectrometry Screening Method
Recombinant proteins were prepared by the Van Voorhis group according to the same protocol as in [25]. Proteins were buffer-exchanged into a suitable volatile buffer (ammonium acetate or ammonium bicarbonate) for native ESI-MS. Depending on the protein, the buffer and its concentration is chosen to obtain the highest sensitivity in the mass spectrometer. We have chosen ammonium acetate buffer (10mM, pH 7) for these two proteins, dUTPase and 6-Phosphogluconolactonase.
High-resolution Fourier transform mass spectrometry (FTMS) can identify the molecular weight of the bound ligand. The difference between the mass-to-charge ratio (Δm/z) for the unbound protein and the [protein-bound ligand] complex ions was multiplied by the charge state (z) to directly afford the molecular weight of the bound ligand, using the following equation.
The BMSS assay was performed on 400 Malaria Box compounds against 25 Plasmodium falciparum proteins, which are critical in malaria cell growth and invasion. Pools of eight Malaria Box compounds (each compound 1 µL, 1 mM in methanol) were incubated with a P. falciparum protein one hour at room temperature. When a non-covalent complex was found, the molecular weight of the binding compound was deducted from the spectrum. On the basis of this information, a binding confirmation on the selected compound was performed. […]

[12] = tested on: P. falciparum Dd2 apicoplast; conditions: ref [61]; cited from earlier work
[13] = tested on: P. falciparum; assay: EC50 listed in S2 Table Metabolomics (used to set the concentration tested); type: cell-based; conditions: Plasmodium falciparum; EC50 used for Factor_XEC50 in metabolomics; read-out: EC50_nM
[14] = tested on: P. falciparum 3D7 trophozoites; assay: Metabolomic fingerprint profiling LC-MS; type: cell-based, Plasmodium falciparum; parameters: UDP-D-glucose / ADP-D-glucose: unit not given here
[15] = tested on: P. falciparum W2 apicoplast; conditions: ref [60]; cited from earlier work
[16] = tested on: Dictyostelium discoideum; conditions: 7.5 µM; ref [150]; cited from earlier work
[17] = cited from earlier work
[18] = biological target: T3, 5-HT4 receptor (Homo sapiens, UniProt Q13639); assay: 5-HT4 radioligand binding; conditions: reference compound
T3 construct: expressed in transfected cells; host or cells: HeLa
T3 sequence (Q13639 whole entry): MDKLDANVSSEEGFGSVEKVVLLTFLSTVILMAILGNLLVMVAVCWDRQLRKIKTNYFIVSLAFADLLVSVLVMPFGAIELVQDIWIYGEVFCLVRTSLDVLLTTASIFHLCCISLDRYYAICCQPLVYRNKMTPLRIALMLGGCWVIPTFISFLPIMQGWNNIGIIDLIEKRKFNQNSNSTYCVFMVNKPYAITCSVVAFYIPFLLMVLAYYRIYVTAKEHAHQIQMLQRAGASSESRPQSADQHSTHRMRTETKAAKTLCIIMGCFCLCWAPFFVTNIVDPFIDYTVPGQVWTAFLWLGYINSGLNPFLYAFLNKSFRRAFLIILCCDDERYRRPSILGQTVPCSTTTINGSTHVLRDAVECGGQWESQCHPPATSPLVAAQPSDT

[19] = metabolite level change after treatment

CCC1(c2ccccc2)NC(=O)N(Cc2ccccc2)C1=O (single isomer, unassigned; (+)) [(+)-N-3-benzylnirvanol]
CYP 2C19 IC50 Acceptance Range [1]: 0.100~0.350 μM

CO[C@H]1/C=C/O[C@@]2(C)Oc3c(C)c(O)c4c(c3C2=O)C2=NC3(CCN(CC(C)C)CC3)NC2=C(NC(=O)/C(C)=C\C=C\[C@H](C)[C@H](O)[C@@H](C)[C@@H](O)[C@@H](C)[C@H](OC(C)=O)[C@@H]1C)C4=O [rifabutin, reference compound]
M. marinum intracellular growth, normalized value [2]: under 0.10
Mycobacterium marinum relative growth DMSO=1 Antibiotic Assay [3]: under 0.10

O=C(C1CCCCC1)N1CC(=O)N2CCc3ccccc3C2C1 (stereo not shown) [Praziquantel]
EC50 [4]: 200 nM
S. mansoni adult males 48hr motility assay ([5]; 48 h, 5µM): zero
S. mansoni adult males visual tox scale, 0 = none, 4=most damaged ([5]; 48hr at 5 µM): 4
somule severity score [6]: 4
EC50 [7]: 2200 nM

O=C(Nc1ccc(Cl)cc1)N1CCN(c2ccc3nncn3n2)CC1 [MMV665917]
Selectivity Index C. parvum over mammalian cells [8]: > 20

O[Si](CCCN1CCCCC1)(c1ccc(F)cc1)C1CCCCC1 (stereo not shown) [p-F-HHSiD]
Ki [9]: 34.4 nM

NC(=O)N1c2ccccc2C=Cc2ccccc21 [Carbamazepine]
Kinetic Solubility pH=7.4 [10]: 43 ± 4 µg/mL

O=C(O)C1Cc2c([nH]c3ccccc23)C(c2ccc(Cl)cc2Cl)N1 (stereo not shown) [MMV008138]
binding to 6-Phosphogluconolactonase (confirmation) [11]: binding
apicoplast targeting in words [12]: targets the apicoplast
EC50 [13]: 350 nM
Acetyllysine ([14]; S2 Table Metabolomics, metabolite Acetyllysine): 0.5387
N-acetyl-L-ornithine ([14]; S2 Table Metabolomics, metabolite N-acetyl-L-ornithine): 0.5503
N-carbamoyl-L-aspartate ([14]; S2 Table Metabolomics, metabolite N-carbamoyl-L-aspartate): 0.144
NADPH ([14]; S2 Table Metabolomics, metabolite NADPH): 0.4869
dAMP ([14]; S2 Table Metabolomics, metabolite dAMP): 0.6135
dCMP ([14]; S2 Table Metabolomics, metabolite dCMP): 0.1541
dTDP ([14]; S2 Table Metabolomics, metabolite dTDP): 0.7214
dTMP ([14]; S2 Table Metabolomics, metabolite dTMP): 0.483
dTTP ([14]; S2 Table Metabolomics, metabolite dTTP): 0.2857
dihydroorotate ([14]; S2 Table Metabolomics, metabolite dihydroorotate): 0.2096
orotate ([14]; S2 Table Metabolomics, metabolite orotate): 0.1204
DLH ([14]; S2 Table Metabolomics, peptide DLH): -0.1546
DLS/SDL/SID ([14]; S2 Table Metabolomics, peptide DLS/SDL/SID): 0.007657
PD ([14]; S2 Table Metabolomics, peptide PD): 0.2545
PEE ([14]; S2 Table Metabolomics, peptide PEE): 0.5615
PVNF ([14]; S2 Table Metabolomics, peptide PVNF): -0.063
3-phosphoglycerate ([14]; metabolite 3-phosphoglycerate, S2 Table Metabolomics): 0.3297
ADP-D-glucose ([14]; metabolite ADP-D-glucose, S2 Table Metabolomics): 0.3003
ATP ([14]; metabolite ATP, S2 Table Metabolomics): 0.2312
CDP ([14]; metabolite CDP, S2 Table Metabolomics, change in metabolite level after compound treatment): 0.6827
D-sedoheptulose-1/7-phosphate ([14]; metabolite D-sedoheptulose-1/7-phosphate, S2 Table Metabolomics, change in metabolite level after compound treatment): 0.414
FAD ([14]; metabolite FAD, S2 Table Metabolomics): 0.2533
GMP ([14]; metabolite GMP, S2 Table Metabolomics, change in metabolite level after compound treatment): -0.6458
NAD+ ([14]; metabolite NAD+, S2 Table Metabolomics): 0.09564
NADP+ ([14]; metabolite NADP+, S2 Table Metabolomics): 0.2678
Octoluse Bisphosphate ([14]; metabolite Octoluse Bisphosphate, S2 Table Metabolomics, change in metabolite level after compound treatment): 0.757
Pyroglutamic acid ([14]; metabolite Pyroglutamic acid, S2 Table Metabolomics): -0.1569
UDP-D-glucose ([14]; metabolite UDP-D-glucose, S2 Table Metabolomics): 0.2273
UDP-D-glucuronate ([14]; metabolite UDP-D-glucuronate, S2 Table Metabolomics): 0.2472
UDP-N-acetyl-glucosamine ([14]; metabolite UDP-N-acetyl-glucosamine, S2 Table Metabolomics): 0.2573
UDP ([14]; metabolite UDP, S2 Table Metabolomics, change in metabolite level after compound treatment): 0.7153
UMP ([14]; metabolite UMP, S2 Table Metabolomics, change in metabolite level after compound treatment): -0.1378
UTP ([14]; metabolite UTP, S2 Table Metabolomics, change in metabolite level after compound treatment): 0.4566
a-ketoglutarate ([14]; metabolite a-ketoglutarate, S2 Table Metabolomics): -0.4582
citrate/isocitrate ([14]; metabolite citrate/isocitrate, S2 Table Metabolomics, change in metabolite level after compound treatment): -0.1476
cytidine ([14]; metabolite cytidine, S2 Table Metabolomics): -0.2541
dATP ([14]; metabolite dATP, S2 Table Metabolomics): 0.1704
dGMP/AMP ([14]; metabolite dGMP/AMP, S2 Table Metabolomics, change in metabolite level after compound treatment): 0.6095
fumarate ([14]; metabolite fumarate, S2 Table Metabolomics, change in metabolite level after compound treatment): 0.1788
glucose-1/6-phosphate ([14]; metabolite glucose-1/6-phosphate, S2 Table Metabolomics, change in metabolite level after compound treatment): 0.6615
glycerate ([14]; metabolite glycerate, S2 Table Metabolomics, change in metabolite level after compound treatment): 0.3332
guanine ([14]; metabolite guanine, S2 Table Metabolomics, change in metabolite level after compound treatment): -0.07738
guanosine ([14]; metabolite guanosine, S2 Table Metabolomics, change in metabolite level after compound treatment): -0.4378
hypoxanthine ([14]; metabolite hypoxanthine, S2 Table Metabolomics): -0.1251
indole ([14]; metabolite indole, S2 Table Metabolomics): -0.05929
inosine ([14]; metabolite inosine, S2 Table Metabolomics, change in metabolite level after compound treatment): -0.03831
2_3-Diphosphoglyceric acid [14, 19]: 0.5774
4-phosphopantothenate [14, 19]: 0.6234
6-phospho-D-gluconate [14, 19]: 0.4127
FMN [14, 19]: 0.5115
IMP [14, 19]: 0.3745
Pyrophosphate [14, 19]: 0.4065
Sedoheptoluse bisphosphate [14, 19]: 0.7391
cyclic-AMP [14, 19]: 0.217
glutathione disulfide [14, 19]: 0.4434
lactate [14, 19]: -0.4969
myo-inositol [14, 19]: 0.6581
nicotinate ([14]; metabolite nicotinate, S2 Table Metabolomics): -0.1339
ornithine ([14]; metabolite ornithine, S2 Table Metabolomics): 0.07192
phosphoenolpyruvate ([14]; metabolite phosphoenolpyruvate, S2 Table Metabolomics): 0.04449
pyruvate ([14]; metabolite pyruvate, S2 Table Metabolomics, change in metabolite level after compound treatment): -0.3198
ribose-phosphate ([14]; metabolite ribose-phosphate, S2 Table Metabolomics): 0.3445
sarcosine/alanine ([14]; metabolite sarcosine/alanine, S2 Table Metabolomics, change in metabolite level after compound treatment): 0.05421
sn-glycerol-3-phosphate ([14]; metabolite sn-glycerol-3-phosphate, S2 Table Metabolomics): -0.3078
succinate/methylmalonic acid ([14]; metabolite succinate/methylmalonic acid, S2 Table Metabolomics, change in metabolite level after compound treatment): 0.03332
uridine ([14]; metabolite uridine, S2 Table Metabolomics, change in metabolite level after compound treatment): -0.07029
xanthosine ([14]; metabolite xanthosine, S2 Table Metabolomics, change in metabolite level after compound treatment): -0.1854
rescue by IPP supplementation in words [15]: highest level of rescue

CN1CCC[C@H]1c1cccnc1 [Nicotine]
D. discoideum growth, positive control [16]: abolishes its growth

CC(=O)CC(c1ccccc1)c1c(O)c2ccccc2oc1=O (stereo not shown) [Warfarin]
Plasma Protein Binding Bound% Human [17]: >98%

Cn1cc(C(=O)OCC2CCN(CCNS(C)(=O)=O)CC2)c2ccccc21 [GR113808]
Ki [18]: 0.45 nM
